Experimental findings from ChEMBL document CHEMBL1149715, “Inhibition of the Mycobacterium tuberculosis enoyl acyl carrier protein reductase InhA by arylamides” (Bioorg Med Chem, 2007) are described below.

The structures appear in SMILES notation. Values after ≈ are worked out from the molar mass of the structure shown.

The first assay has as its system Mycobacterium tuberculosis. Put plainly: Antibacterial activity against Mycobacterium tuberculosis H37Rv by Alamar blue assay. In kind it is functional.
`O=C(c1ccc2[nH]ccc2c1)N1CCN(C(c2ccc(F)cc2)c2ccc(F)cc2)CC1` had a minimum inhibitory concentration (MIC) of 62.5 µM (≈ 27 µg/mL).

`O=C(c1ccccc1)N1CCN(C(c2ccc(F)cc2)c2ccc(F)cc2)CC1` gave an MIC of 125 µM (≈ 49.1 µg/mL). This MIC is about 2-fold higher than that of the compound before.

On to `Cc1cccc(C(=O)N2CCN(c3ccc([N+](=O)[O-])cc3)CC2)c1`, for which inhibition of growth (MIC) required 125 µM (≈ 40.7 µg/mL).

The target of a further assay is T1, Enoyl-[acyl-carrier-protein] reductase [NADH] (Mycobacterium tuberculosis, UniProt P9WGR1).
T1 sequence (P9WGR1 whole entry): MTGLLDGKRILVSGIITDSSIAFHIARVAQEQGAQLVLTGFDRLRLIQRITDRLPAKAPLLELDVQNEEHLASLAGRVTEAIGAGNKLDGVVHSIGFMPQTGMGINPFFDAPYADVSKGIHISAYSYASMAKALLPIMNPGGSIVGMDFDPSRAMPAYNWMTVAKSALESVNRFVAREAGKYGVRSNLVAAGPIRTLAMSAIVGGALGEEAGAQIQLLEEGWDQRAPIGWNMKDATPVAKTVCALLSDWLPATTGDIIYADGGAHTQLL
Description: Inhibition of Mycobacterium tuberculosis InhA
As for `Cc1ccc(C(=O)N2CCN(c3ccccc3)CC2)cc1`, the IC50 came out at 16.6 µM.

Compound `Cc1cccc(C(=O)N2CCN(c3cccc(Cl)c3)CC2)c1` registered an IC50 of 9.43 µM.

As for `Cc1ccc(C(=O)N2CCN(c3cccc(Cl)c3)CC2)cc1C`, the IC50 is 0.99 µM. This IC50 lies about 9.5-fold lower than the previous one.

`O=C(c1ccc(F)cc1)N1CCN(c2cccc(Cl)c2)CC1`: inhibition was half-maximal at 9.74 µM (IC50).

With `Cc1ccc(C(=O)N2CCN(c3cccc(C(F)(F)F)c3)CC2)cc1C`, the IC50 turned out to be 1.85 µM. This IC50 is about 5.3-fold lower than that of the compound before.

Turning to `CC(C)(C)c1ccc(C(=O)N2CCN(c3cccc(Cl)c3)CC2)cc1`, the IC50 is > 100 µM.

With `CC(C)(C)c1ccc(C(=O)N2CCN(c3cccc(C(F)(F)F)c3)CC2)cc1`, the IC50 is > 100 µM.

Compound `O=C(c1cccc(Cl)c1)N1CCN(c2cccc(Cl)c2)CC1` gave a half-inhibitory concentration (IC50) of 6.73 µM.

Turning to `O=C(c1ccc(Cl)c(Cl)c1)N1CCN(c2ccccc2)CC1`, the 50% inhibitory concentration (IC50) was 17.6 µM.

In turn, `O=C(c1ccccc1)N1CCN(Cc2ccccc2)CC1` registered an IC50 of 31.5 µM.

The compound `O=C(c1cccc(Cl)c1)N1CCC(Cc2ccccc2)CC1` yielded an IC50 of 7.74 µM.

Take `Cc1ccc(C(=O)N2CCC(Cc3ccccc3)CC2)cc1`: inhibition was half-maximal at 5.16 µM (IC50). This IC50 is about 1.5-fold lower than that of the compound before.

`Cc1cccc(C(=O)N2CCC(Cc3ccccc3)CC2)c1` yielded an IC50 of 7.39 µM.

The compound `O=C(c1ccccc1)N1CCN(C2c3ccccc3-c3ccccc32)CC1` came in with an IC50 of 0.09 µM. Against the preceding compound, the IC50 is about 82-fold lower.

Take `O=C(c1ccccc1)N1CCN(c2ccccc2)CC1`: the IC50 is 38.9 µM.

Take `O=C(c1ccc2[nH]ccc2c1)N1CCN(C(c2ccc(F)cc2)c2ccc(F)cc2)CC1`: it took 1.04 µM to reach half-maximal inhibition (IC50).

As for `Cc1ccc(C(=O)N2CCN(C(c3ccc(F)cc3)c3ccc(F)cc3)CC2)cc1`, the IC50 is 1.89 µM. Against the preceding compound, the IC50 is about 1.8-fold higher.

Take `O=C(c1ccccc1)N1CCN(C(c2ccc(F)cc2)c2ccc(F)cc2)CC1`: the IC50 came out at 2.04 µM. This IC50 and that of the compound before are within 1.5-fold of each other.

Turning to `Cc1ccc(C(=O)N2CCN(C3c4ccccc4-c4ccccc43)CC2)cc1`, the concentration for half-maximal inhibition (IC50) came to 0.4 µM.

Consider `CC(C)c1ccc(C(=O)N2CCN(c3cccc(Cl)c3)CC2)cc1`, for which the IC50 is > 100 µM.

On to `O=C(c1ccccc1F)N1CCN(c2cccc(Cl)c2)CC1`, for which 13.9 µM corresponded to half-maximal inhibition (IC50). This lies in the double-digit micromolar range.

`Cc1ccc(C(=O)N2CCN(c3cccc(C(F)(F)F)c3)CC2)cc1`: it took 6.26 µM to reach half-maximal inhibition (IC50). This IC50 is about 2.2-fold lower than that of the compound before.

With `Cc1cccc(C(=O)N2CCN(c3ccc([N+](=O)[O-])cc3)CC2)c1`, the IC50 was found to be 15.5 µM.

`Cc1ccc(N2CCN(C(=O)c3ccc(C(C)(C)C)cc3)CC2)cc1Cl`: the half-inhibitory concentration (IC50) is > 100 µM.

As to `O=C(c1ccc(Cl)c(Cl)c1)N1CCN(c2cccc(Cl)c2)CC1`, half-maximal inhibition (IC50) required 6.05 µM. This lies in the single-digit micromolar range.

Consider `Cc1ccc(C(=O)N2CCN(c3cccc(Cl)c3)CC2)cc1`, for which 3.07 µM corresponded to half-maximal inhibition (IC50).

With `O=C(c1ccccc1F)N1CCC(Cc2ccccc2)CC1`, the IC50 turned out to be 14.1 µM.
